Data published in patent publication US5416222A, “3-pyrrolidine methanamines wherein the alpha-carbon is substituted by 1 or 2 lower alkyl groups which are intermediates for pyridone-carboxylic acid derivatives” (Daiichi Seiyaku Co., Ltd., priority 1985, dated 1995).
Values after ≈ are worked out from the molar mass of the structure shown.

Assays:
Pr. vulgaris, 3167 = assay: antimicrobial activity, MIC, standard process of Japan Society of Chemotherapy; format: cell-based; details: Proteus vulgaris, 3167, Pr. vulgaris, read-out: minimum growth inhibitory concentration (MIC)
Procedure: (§1) The antimicrobial activities of the compounds of the present invention were determined according to a standard process designated by the Japan Society of Chemotherapy and the minimum growth inhibitory concentrations (MIC) (μg/ml) the compounds were determined.

S. epidermidis, 56500 = assay: as above; format: cell-based; details: Staphylococcus epidermidis, 56500, S. epidermidis, read-out: minimum growth inhibitory concentration (MIC)
Procedure: as §1

Str. pyogenes, G-36 = assay: as above; format: cell-based; details: Streptococcus pyogenes, G36, Str. pyogenes, read-out: minimum growth inhibitory concentration (MIC)
Procedure: as §1

Sh. flexneri, 2a5503 = assay: as above; format: cell-based; details: Shigella flexneri, read-out: minimum growth inhibitory concentration (MIC)
Procedure: as §1

[1] = test system: Str. faecalis, ATCC 19433; assay: as above; format: cell-based; details: Enterococcus faecalis, ATCC19433, Str. faecalis, read-out: minimum growth inhibitory concentration (MIC)
Procedure: as §1

Ps. cepacia, IID1340 = assay: as above; format: cell-based; details: Burkholderia cepacia, IID1340, Ps. cepacia, read-out: minimum growth inhibitory concentration (MIC)
Procedure: as §1

E. coli, NIHJ = assay: as above; format: cell-based; details: Escherichia coli, read-out: minimum growth inhibitory concentration (MIC)
Procedure: as §1

Ps. maltophilia, IID1275 = assay: as above; format: cell-based; details: Stenotrophomonas maltophilia, IID1275, Ps. maltophilia, read-out: minimum growth inhibitory concentration (MIC)
Procedure: as §1

Pr. mirabilis, IF03849 = assay: as above; format: cell-based; details: Proteus mirabilis, IF03849, Pr. mirabilis, read-out: minimum growth inhibitory concentration (MIC)
Procedure: as §1

Ps. aeruginosa, 2128 = assay: as above; format: cell-based; details: Pseudomonas aeruginosa, 2128, Ps. aeruginosa, read-out: minimum growth inhibitory concentration (MIC)
Procedure: as §1

Ser. marcescens, 13001 = assay: as above; format: cell-based; details: Serratia marcescens, 13001, Ser. marcescens, read-out: minimum growth inhibitory concentration (MIC)
Procedure: as §1

S. aureus, 209P = assay: as above; format: cell-based; details: Staphylococcus aureus, read-out: minimum growth inhibitory concentration (MIC)
Procedure: as §1

Ps. aeruginosa, 2063 = assay: as above; format: cell-based; details: Pseudomonas aeruginosa, 2063, Ps. aeruginosa, read-out: minimum growth inhibitory concentration (MIC)
Procedure: as §1

physchem = format: physicochemical; details: water
Procedure: (§2) The water-solubility and acute toxicity of the compounds of the present invention and the comparative compounds, were measured. The results obtained are shown hereunder. The water-solubility was measured by the following method.
(i) Preparation of standard solution
About 400 μg of the sample to be measured was accurately weighed (the weight was defined as W μg), and 0.1N NaOH solution was added thereto to bring the whole volume to 50 ml. The UV absorbance of a given amount of the solution was measured and the measured absorbance was defined as A1.
(ii) Preparation of sample to be measured
Distilled water was added to the sample to be measured (fine powder) in such amount that the sample was not completely dissolved but suspended, and then the suspension was vigorously agitated at room temperature (between 23° and 26° C.) for 30 minutes. Insoluble matter of the sample was removed therefrom by filtration, after which 3 ml sample of the filtrate (satulated aqueous solution of the sample) was taken. 3 ml of 0.2N NaOH solution was added to the filtrate sample to bring the total volume to 6 ml (i.e. the filtrate was diluted to 50% concentration.) To 1 ml of the resulting solution, 0.1N NaOH solution was further added to bring the total volume to 25 ml […]. In this connection, degree of dilution was occasionally changed, depending on degree of UV absorbance. The UV absorbance of the given amount of the solution was measured and the resulting absorbance was defined to as A2. Where the number of dilution is N, water-solubility (s) is obtained from the following equation: [formula]

mouse = assay: acute toxicity to mouse; format: in vivo; details: 200 mg/kg; i.v.
Procedure: as §2
*200 mg/kg; i.v, (deaths/total number) As is obvious from the above

[2] = absorption after oral administration to rats; format: in vivo; details: rat, 20 mg/kg; for half-life: serum half life, 0.693/Kel; for Cmax / AUC(0-t) at 6 h: serum; for Cmax: 5 rats per group; for AUC(0-t) at 6 h: zero to 6 h, trapezoidal method, read-out: AUC0-6H
Procedure: The compounds of the present invention and the comparative compound were orally given to rats (one group: 5 rats) at a dose of 20 mg/kg to measure the oral absorption of the compounds. The concentration of the compound in the blood of the rat was measured at 15 minutes, 30 minutes, and 1, 2, 3, 4, and 6 hours after administration.
Serum half lives (T1/2) were calculated as 0.693/Kel, where Kel is the elimination rate constant determined by linear regression analysis of the natural logarithm of serum concentration-time data. The area under the serum concentration-versus time curve from zero to 6 h (AUC0-6H) was calculated by the trapezoidal method, The results obtained are as follows: […]

[3] = test system: Gram-negative microorganisms; details: in words, prior art discussion; cited from earlier work
[4] = in words, prior art discussion; cited from earlier work

SMILES | MIC (Pr. vulgaris, 3167) | MIC (S. epidermidis, 56500) | MIC (Str. pyogenes, G-36) | MIC (Sh. flexneri, 2a5503) | MIC [1] | MIC (Ps. cepacia, IID1340) | MIC (E. coli, NIHJ) | MIC (Ps. maltophilia, IID1275) | MIC (Pr. mirabilis, IF03849) | MIC (Ps. aeruginosa, 2128) | MIC (Ser. marcescens, 13001) | MIC (S. aureus, 209P) | MIC (Ps. aeruginosa, 2063) | solubility at 0.5 h (physchem) | Acute toxicity to mouse (mouse) | half-life [2] | Cmax [2] | AUC(0-t) at 6 h [2] | antimicrobial activity against Gram-negative microorganisms (prior art compounds) [3] | water-solubility (prior art compounds) [4]
CC(C)(N)C1CCN(c2c(F)cc3c(=O)c(C(=O)O)cn(C4CC4)c3c2F)C1 (stereo not drawn) [Example 11, 7-[3-(1-Amino-1-methyl)ethyl-1-pyrrolidinyl]-1-cyclopropyl-6,8-difluoro-1,4-dihydro-4-oxoquinoline-3-carboxylic acid] | ≤ 0.05 µg/mL | ≤ 0.05 µg/mL | ≤ 0.05 µg/mL | ≤ 0.05 µg/mL | ≤ 0.05 µg/mL | 0.78 µg/mL (≈ 1.99 µM) | ≤ 0.05 µg/mL | 0.1 µg/mL (≈ 0.255 µM) | 0.1 µg/mL (≈ 0.255 µM) | 0.2 µg/mL (≈ 0.511 µM) | 0.1 µg/mL (≈ 0.255 µM) | ≤ 0.05 µg/mL | 0.78 µg/mL (≈ 1.99 µM) | 200 µg/mL (≈ 511 µM) | 0/5 | 2.27 h | 2100 ng/mL | 6430 ng·h/mL | – | –
CCNCC1CCN(c2c(F)cc3c(=O)c(C(=O)O)cn(C4CC4)c3c2F)C1 (stereo not drawn) [Compound A, 1-cyclopropyl-6,8-difluoro-(3-ethylaminomethyl-1-pyrolidinyl)-1,4-dihydro-4-oxoquinoline-3-carboxylic acid, reference compound] | 0.1 µg/mL (≈ 0.255 µM) | ≤ 0.05 µg/mL | 0.1 µg/mL (≈ 0.255 µM) | ≤ 0.05 µg/mL | 0.1 µg/mL (≈ 0.255 µM) | 0.78 µg/mL (≈ 1.99 µM) | ≤ 0.05 µg/mL | 0.39 µg/mL (≈ 0.996 µM) | ≤ 0.05 µg/mL | 0.2 µg/mL (≈ 0.511 µM) | 0.1 µg/mL (≈ 0.255 µM) | ≤ 0.05 µg/mL | 0.39 µg/mL (≈ 0.996 µM) | 40 µg/mL (≈ 102 µM) | 3/5 | – | – | – | strong antimicrobial activity | extremely low water-solubility
CC(C)(N)C1CCN(c2nc3c(cc2F)c(=O)c(C(=O)O)cn3C2CC2)C1 (stereo not drawn) [Example 13, 7-[3-(1-Amino-1-methyl)ethyl-1-pyrrolidinyl]-1-cyclo-propyl-6-difluoro-1,4-dihydro-4-oxo-1,8-naphthyridine-3-carboxylic acid] | 0.1 µg/mL (≈ 0.267 µM) | ≤ 0.05 µg/mL | 0.1 µg/mL (≈ 0.267 µM) | ≤ 0.05 µg/mL | 0.2 µg/mL (≈ 0.534 µM) | 0.78 µg/mL (≈ 2.08 µM) | ≤ 0.05 µg/mL | 0.2 µg/mL (≈ 0.534 µM) | 0.39 µg/mL (≈ 1.04 µM) | 0.2 µg/mL (≈ 0.534 µM) | 0.2 µg/mL (≈ 0.534 µM) | ≤ 0.05 µg/mL | 0.39 µg/mL (≈ 1.04 µM) | 2000 µg/mL (≈ 5340 µM) | 1/5 | 2.41 h | 2140 ng/mL | 7950 ng·h/mL | – | –
CNC(C)C1CCN(c2nc3c(cc2F)c(=O)c(C(=O)O)cn3C2CC2)C1 (stereo not drawn) [Example 8] | 0.1 µg/mL (≈ 0.267 µM) | 0.2 µg/mL (≈ 0.534 µM) | 0.78 µg/mL (≈ 2.08 µM) | ≤ 0.05 µg/mL | 0.39 µg/mL (≈ 1.04 µM) | 1.56 µg/mL (≈ 4.17 µM) | ≤ 0.05 µg/mL | 0.78 µg/mL (≈ 2.08 µM) | 0.39 µg/mL (≈ 1.04 µM) | 0.39 µg/mL (≈ 1.04 µM) | 0.39 µg/mL (≈ 1.04 µM) | 0.1 µg/mL (≈ 0.267 µM) | 1.56 µg/mL (≈ 4.17 µM) | – | – | – | – | – | – | –
